Experiments:
Test in all cases: relative viability (nuclei count vs DMSO), 5 days (fraction); higher = more cells survive
[1] = test system: CAL-12T
Method in brief: (§1)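 Lung cancer cell lines in 1536-well plates were dosed by pin tool the day after seeding, either with one drug alone or with a fixed anchor-drug dose plus five library-drug doses (not always all listed) in √10 steps. After 5 days, cells were fixed and their nuclei stained in one step (final 0.05% Triton X-100, 1% formaldehyde, 1 ug/ml Hoechst), then counted on 4× images. Relative viability is the nuclei count in treated wells divided by that in vehicle wells. Values are medians of duplicate plates.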

[2] = test system: NCI-H1666
Method in brief: as §1

[3] = test system: NCI-H1975
Method in brief: as §1

[4] = test system: NCI-H1755
Method in brief: as §1

[5] = test system: UMC-11
Method in brief: as §1

[6] = test system: ChaGo-K-1
Method in brief: as §1

[7] = test system: HCC-15
Method in brief: as §1

[8] = test system: COR-L 105
Method in brief: as §1

[9] = test system: NCI-H2126
Method in brief: as §1

[10] = test system: NCI-H3122
Method in brief: as §1

[11] = test system: NCI-H322M
Method in brief: as §1

[12] = test system: NCI-H441
Method in brief: as §1

[13] = test system: HCC-78
Method in brief: as §1

[14] = test system: NCI-H2023
Method in brief: as §1

[15] = test system: EPLC-272H
Method in brief: as §1

[16] = test system: HOP-62
Method in brief: as §1

[17] = test system: LXF-289
Method in brief: as §1

[18] = test system: NCI-H1915
Method in brief: as §1

[19] = test system: EMC-BAC-2
Method in brief: as §1

[20] = test system: NCI-H2085
Method in brief: as §1

## O=c1cc(-c2cccc3c2Sc2ccccc2S3)oc(N2CCOCC2)c1 + CC1(C)CCC(c2ccc(Cl)cc2)=C(CN2CCN(c3ccc(C(=O)NS(=O)(=O)c4ccc(N[C@H](CCN5CCOCC5)CSc5ccccc5)c(S(=O)(=O)C(F)(F)F)c4)cc3)CC2)C1 [Navitoclax] (partner 0.5 µM)
[1]; first compound 0.08 µM
  relative viability: 1.16
[1]; first compound 0.253 µM
  relative viability: 1.26
[1]; first compound 0.8 µM
  relative viability: 1.48
[1]; first compound 2.53 µM
  relative viability: 1.2
[1]; first compound 8 µM
  relative viability: 1.31
[2]; first compound 0.08 µM
  relative viability: 0.988
[2]; first compound 0.253 µM
  relative viability: 0.976
[2]; first compound 0.8 µM
  relative viability: 0.952
[2]; first compound 2.53 µM
  relative viability: 0.868
[2]; first compound 8 µM
  relative viability: 0.799
[3]; first compound 0.08 µM
  relative viability: 1.2
[3]; first compound 0.253 µM
  relative viability: 1.4
[3]; first compound 0.8 µM
  relative viability: 1.35
[3]; first compound 2.53 µM
  relative viability: 1.16
[3]; first compound 8 µM
  relative viability: 0.997
[4]; first compound 0.08 µM
  relative viability: 1.05
[4]; first compound 0.253 µM
  relative viability: 1.13
[4]; first compound 0.8 µM
  relative viability: 0.992
[4]; first compound 2.53 µM
  relative viability: 0.988
[4]; first compound 8 µM
  relative viability: 0.939
[5]; first compound 0.08 µM
  relative viability: 0.326
[5]; first compound 0.253 µM
  relative viability: 0.319
[5]; first compound 0.8 µM
  relative viability: 0.32
[5]; first compound 2.53 µM
  relative viability: 0.304
[5]; first compound 8 µM
  relative viability: 0.353
[6]; first compound 0.08 µM
  relative viability: 0.903
[6]; first compound 0.253 µM
  relative viability: 1.04
[6]; first compound 0.8 µM
  relative viability: 1.12
[6]; first compound 8 µM
  relative viability: 1.25
[7]; first compound 0.08 µM
  relative viability: 0.68
[7]; first compound 0.253 µM
  relative viability: 0.866
[7]; first compound 0.8 µM
  relative viability: 0.615
[7]; first compound 2.53 µM
  relative viability: 0.66
[7]; first compound 8 µM
  relative viability: 0.705
[8]; first compound 0.08 µM
  relative viability: 0.649
[8]; first compound 0.253 µM
  relative viability: 0.849
[8]; first compound 0.8 µM
  relative viability: 0.678
[8]; first compound 2.53 µM
  relative viability: 0.642
[8]; first compound 8 µM
  relative viability: 0.993
[9]; first compound 0.08 µM
  relative viability: 0.808
[9]; first compound 0.253 µM
  relative viability: 0.974
[9]; first compound 0.8 µM
  relative viability: 0.8
[9]; first compound 2.53 µM
  relative viability: 0.826
[9]; first compound 8 µM
  relative viability: 0.849
[10]; first compound 0.08 µM
  relative viability: 1.04
[10]; first compound 0.253 µM
  relative viability: 1.01
[10]; first compound 0.8 µM
  relative viability: 1.03
[10]; first compound 2.53 µM
  relative viability: 1.02
[10]; first compound 8 µM
  relative viability: 1.03
[11]; first compound 0.08 µM
  relative viability: 1.2
[11]; first compound 0.253 µM
  relative viability: 1.3
[11]; first compound 0.8 µM
  relative viability: 1.15
[11]; first compound 2.53 µM
  relative viability: 1.16
[11]; first compound 8 µM
  relative viability: 1.05
[12]; first compound 0.08 µM
  relative viability: 1.14
[12]; first compound 0.253 µM
  relative viability: 0.909
[12]; first compound 0.8 µM
  relative viability: 0.523
[12]; first compound 2.53 µM
  relative viability: 0.776
[12]; first compound 8 µM
  relative viability: 0.762
[13]; first compound 0.08 µM
  relative viability: 0.806
[13]; first compound 0.253 µM
  relative viability: 0.978
[13]; first compound 0.8 µM
  relative viability: 0.767
[13]; first compound 2.53 µM
  relative viability: 0.779
[13]; first compound 8 µM
  relative viability: 0.816
[14]; first compound 0.08 µM
  relative viability: 1.04
[14]; first compound 0.253 µM
  relative viability: 1.12
[14]; first compound 0.8 µM
  relative viability: 1.04
[14]; first compound 2.53 µM
  relative viability: 0.943
[14]; first compound 8 µM
  relative viability: 1.02
[15]; first compound 0.08 µM
  relative viability: 1.09
[15]; first compound 0.253 µM
  relative viability: 1.17
[15]; first compound 0.8 µM
  relative viability: 1.17
[15]; first compound 2.53 µM
  relative viability: 1.09
[15]; first compound 8 µM
  relative viability: 1.2
[16]; first compound 0.08 µM
  relative viability: 1.09
[16]; first compound 0.253 µM
  relative viability: 1.43
[16]; first compound 0.8 µM
  relative viability: 1.21
[16]; first compound 2.53 µM
  relative viability: 0.902
[16]; first compound 8 µM
  relative viability: 1.28
[17]; first compound 0.08 µM
  relative viability: 0.996
[17]; first compound 0.253 µM
  relative viability: 1.06
[17]; first compound 0.8 µM
  relative viability: 1.03
[17]; first compound 2.53 µM
  relative viability: 0.951
[17]; first compound 8 µM
  relative viability: 1
[18]; first compound 0.08 µM
  relative viability: 0.776
[18]; first compound 0.253 µM
  relative viability: 0.847
[18]; first compound 0.8 µM
  relative viability: 0.795
[18]; first compound 2.53 µM
  relative viability: 0.787
[18]; first compound 8 µM
  relative viability: 0.872
[19]; first compound 0.08 µM
  relative viability: 1.3
[19]; first compound 0.253 µM
  relative viability: 1.41
[19]; first compound 0.8 µM
  relative viability: 1.37
[19]; first compound 2.53 µM
  relative viability: 1.2
[19]; first compound 8 µM
  relative viability: 1.35
[20]; first compound 0.08 µM
  relative viability: 1.15
[20]; first compound 0.253 µM
  relative viability: 1.31
[20]; first compound 0.8 µM
  relative viability: 1.17
[20]; first compound 2.53 µM
  relative viability: 1.05
[20]; first compound 8 µM
  relative viability: 1.07

## COc1nc(C)cnc1NS(=O)(=O)c1cccnc1-c1ccc(-c2nnco2)cc1 [Zibotentan] + CC1(C)CCC(c2ccc(Cl)cc2)=C(CN2CCN(c3ccc(C(=O)NS(=O)(=O)c4ccc(N[C@H](CCN5CCOCC5)CSc5ccccc5)c(S(=O)(=O)C(F)(F)F)c4)cc3)CC2)C1 [Navitoclax] (partner 0.5 µM)
[1]; first compound 0.08 µM
  relative viability: 1.27
[1]; first compound 0.253 µM
  relative viability: 1
[1]; first compound 0.8 µM
  relative viability: 1.45
[1]; first compound 2.53 µM
  relative viability: 1.06
[2]; first compound 0.08 µM
  relative viability: 0.878
[2]; first compound 0.253 µM
  relative viability: 0.785
[2]; first compound 0.8 µM
  relative viability: 0.767
[2]; first compound 2.53 µM
  relative viability: 1.01
[3]; first compound 0.08 µM
  relative viability: 1.13
[3]; first compound 0.253 µM
  relative viability: 1.05
[3]; first compound 0.8 µM
  relative viability: 1.05
[3]; first compound 2.53 µM
  relative viability: 1.02
[4]; first compound 0.08 µM
  relative viability: 1.01
[4]; first compound 0.253 µM
  relative viability: 0.99
[4]; first compound 0.8 µM
  relative viability: 1
[4]; first compound 2.53 µM
  relative viability: 1.02
[5]; first compound 0.08 µM
  relative viability: 0.303
[5]; first compound 0.253 µM
  relative viability: 0.32
[5]; first compound 0.8 µM
  relative viability: 0.293
[5]; first compound 2.53 µM
  relative viability: 0.302
[6]; first compound 0.08 µM
  relative viability: 0.95
[6]; first compound 0.8 µM
  relative viability: 0.695
[6]; first compound 2.53 µM
  relative viability: 0.888
[7]; first compound 0.08 µM
  relative viability: 0.648
[7]; first compound 0.253 µM
  relative viability: 0.656
[7]; first compound 0.8 µM
  relative viability: 0.765
[7]; first compound 2.53 µM
  relative viability: 0.698
[8]; first compound 0.08 µM
  relative viability: 0.696
[8]; first compound 0.253 µM
  relative viability: 0.649
[8]; first compound 0.8 µM
  relative viability: 0.993
[8]; first compound 2.53 µM
  relative viability: 0.84
[9]; first compound 0.08 µM
  relative viability: 0.876
[9]; first compound 0.253 µM
  relative viability: 0.796
[9]; first compound 0.8 µM
  relative viability: 0.724
[9]; first compound 2.53 µM
  relative viability: 0.883
[10]; first compound 0.08 µM
  relative viability: 1.04
[10]; first compound 0.253 µM
  relative viability: 1.01
[10]; first compound 0.8 µM
  relative viability: 1.04
[10]; first compound 2.53 µM
  relative viability: 1.06
[11]; first compound 0.08 µM
  relative viability: 1.12
[11]; first compound 0.253 µM
  relative viability: 1.18
[11]; first compound 0.8 µM
  relative viability: 1.23
[11]; first compound 2.53 µM
  relative viability: 1.3
[12]; first compound 0.08 µM
  relative viability: 0.635
[12]; first compound 0.8 µM
  relative viability: 0.794
[12]; first compound 2.53 µM
  relative viability: 0.877
[13]; first compound 0.08 µM
  relative viability: 0.859
[13]; first compound 0.253 µM
  relative viability: 0.687
[13]; first compound 0.8 µM
  relative viability: 0.664
[13]; first compound 2.53 µM
  relative viability: 0.764
[14]; first compound 0.08 µM
  relative viability: 1.05
[14]; first compound 0.253 µM
  relative viability: 0.922
[14]; first compound 0.8 µM
  relative viability: 1.01
[14]; first compound 2.53 µM
  relative viability: 1.1
[15]; first compound 0.08 µM
  relative viability: 1.09
[15]; first compound 0.253 µM
  relative viability: 1.1
[15]; first compound 0.8 µM
  relative viability: 1.16
[15]; first compound 2.53 µM
  relative viability: 1.4
[16]; first compound 0.08 µM
  relative viability: 1.06
[16]; first compound 0.253 µM
  relative viability: 1.08
[16]; first compound 0.8 µM
  relative viability: 0.99
[16]; first compound 2.53 µM
  relative viability: 1
[17]; first compound 0.08 µM
  relative viability: 0.96
[17]; first compound 0.253 µM
  relative viability: 0.945
[17]; first compound 0.8 µM
  relative viability: 0.938
[17]; first compound 2.53 µM
  relative viability: 0.968
[18]; first compound 0.08 µM
  relative viability: 0.732
[18]; first compound 0.253 µM
  relative viability: 0.79
[18]; first compound 0.8 µM
  relative viability: 0.805
[18]; first compound 2.53 µM
  relative viability: 0.797
[19]; first compound 0.08 µM
  relative viability: 1.11
[19]; first compound 0.253 µM
  relative viability: 1.17
[19]; first compound 0.8 µM
  relative viability: 1.18
[19]; first compound 2.53 µM
  relative viability: 1.19
[20]; first compound 0.08 µM
  relative viability: 1.23
[20]; first compound 0.253 µM
  relative viability: 1.08
[20]; first compound 0.8 µM
  relative viability: 1.28
[20]; first compound 2.53 µM
  relative viability: 1.27

Reference: the supplement of paper PMC10307832
